Experimental data from patent publication US5348743A, “Anti-pathogenically effective compositions comprising lytic peptides and hydrolytic enzymes” (priority 1993, dated 1994).
Where two headings read alike, the source gives them in different places.

Key:
[1] = test system: beta-1,3-glucanase; assay type: biochemical, Phaseolus vulg. L. cv. saxa
Description: (§1) Seeds of Phaseolus vulg. L. cv. saxa were grown in vermiculite under a 16 hr light: 8 hr dark regime at 20° C. Twelve day old bean plants were incubated in air-tight plastic chambers with a volume of 0.2 m^3. Control plants were incubated in identical chambers in ethylene-free air. After 48 hours, the primary leaves were harvested and frozen at -20° C.
(§2) 0.6597 kg frozen leaf tissue was homogenized in 0.1M sodium citrate buffer at pH 5.0 (2 ml×g^-1 fresh weight) with a Turmix homogenizer at top speed. The homogenate was centrifuged (25 Min., 11000 g) and 100 ml of the supernatant were used as a crude enzyme preparation. The proteins in the remaining crude extract were precipitated by adding ammonium sulfate to 95% saturation. After centrifugation (30 min., 11000 g) the sediment was redissolved in 100 mM Tris/HCl pH 8.0 and dialyzed against 5 mM Tris/HCl pH 8.0.
Beta-1,3-glucanase activity was measured as described by Dygert et al., Analyt. Biochem., 13:367-374 (1965).

[2] = test system: chitinase; conditions: Burri (1989), average of five ethylene treatments; cited from earlier work
[3] = test system: beta-1,3-glucanase; conditions: Burri (1989), average of five ethylene treatments; cited from earlier work
[4] = test system: chitinase; assay type: biochemical, Phaseolus vulg. L. cv. saxa
Description: as §1, §2
Chitinase activity was measured as described by Molano et al. (1977).

[5] = test system: S. nodorum; test: Inhibitory effect of lytic peptides and hydrolytic enzymes against S. nodorum (microtiter plates, liquid pea medium, absorbance at 595 nm); assay type: cell-based, Septoria nodorum
Description: Microtiter plates were selected to investigate the inhibitory effect of lytic peptides and hydrolytic enzymes against S. nodorum. Test substances were added to 90 ul liquid pea medium which had been previously inoculated with 2.0×10^4 spores/ml medium of the test pathogen to give a final volume of 100 ul. The blank value of the test substances were determined by adding them to uninoculated liquid pea medium. The plates were evaluated after incubation in a wet chamber at 23° C. on a shaker in the dark for 48 hours.
a. Hydrolytic enzymes were purified from ethylene-treated bean leaves by the procedure described in Example 1.
b. Lytic peptides: The following antimicrobial peptides were tested at 20 ppm, 60 ppm and 200 ppm concentrations:
d. Combinations of test substances: Table 3 illustrates the composition of test solutions which were tested in duplicate/triplicate samples.
e. Evaluation: The growth of the pathogen was recorded by measuring the absorbance of the medium at 595 nm. The average of duplicate/triplicate samples was calculated and the corresponding enzyme blank was subtracted to give the net absorption of the growing mycelium. The inhibitory effect of the test substances used was determined by calculating the growth of the pathogen as a percentage of water control.

Q: What does the source list for `C=C` [ethylene]?
A: Specific beta-1,3-glucanase activity [1]: 28.72; absolute beta-1,3-glucanase activity [1]: 34.21; induction of beta-1,3-glucanase in bean leaves [1]: strong induction; absolute chitinase activity [2]: 88.86±6.65 nkatal/ml extract; absolute beta-1,3-glucanase activity [3]: 76.00±6.77 nkatal/ml extract; Specific chitinase activity [4]: 45.95; absolute chitinase activity [4]: 54.71; induction of chitinase in bean leaves [4]: strong induction

Q: Which “FUNGAL GROWTH IN PERCENTAGE OF CONTROL” value ([5]; test solution 5: lytic peptide 20 ppm alone, 48 hours, 23° C.) does the source give for “GIGKFLHSAK KFGKAFVGI MNS [SYNTHETIC PEPTIDE NO. 3]” here?
A: 80.35 percentage of control

Q: What about the “FUNGAL GROWTH IN PERCENTAGE OF CONTROL” value ([5]; test solution 6: lytic peptide 60 ppm alone, 48 hours, 23° C.) of the same compound?
A: 73.51 percentage of control

Q: And the “FUNGAL GROWTH IN PERCENTAGE OF CONTROL” value ([5]; test solution 7: lytic peptide 200 ppm alone, 48 hours, 23° C.)?
A: 65.96 percentage of control

Q: And the “FUNGAL GROWTH IN PERCENTAGE OF CONTROL” value ([5]; test solution 12: lytic peptide 20 ppm + chitinase 1/10 c)?
A: 68.42 percentage of control

Q: What about the “FUNGAL GROWTH IN PERCENTAGE OF CONTROL” value ([5]; test solution 13: lytic peptide 60 ppm + chitinase 1/10 c) of the same compound?
A: 63.51 percentage of control

Q: And the “FUNGAL GROWTH IN PERCENTAGE OF CONTROL” value ([5]; test solution 14: lytic peptide 200 ppm + chitinase 1/10 c)?
A: 61.75 percentage of control

Q: What about the “FUNGAL GROWTH IN PERCENTAGE OF CONTROL” value ([5]; test solution 15: lytic peptide 20 ppm + chitinase 1/100 c) of the same compound?
A: 77.89 percentage of control

Q: And the “FUNGAL GROWTH IN PERCENTAGE OF CONTROL” value ([5]; test solution 16: lytic peptide 60 ppm + chitinase 1/100 c)?
A: 71.58 percentage of control

Q: What about the “FUNGAL GROWTH IN PERCENTAGE OF CONTROL” value ([5]; test solution 17: lytic peptide 200 ppm + chitinase 1/100 c) of the same compound?
A: 64.21 percentage of control

Q: What about the “FUNGAL GROWTH IN PERCENTAGE OF CONTROL” value ([5]; test solution 18: lytic peptide 20 ppm + beta-1,3-glucanase 1/10 c) of the same compound?
A: 46.67 percentage of control

Q: What about the “FUNGAL GROWTH IN PERCENTAGE OF CONTROL” value ([5]; test solution 19: lytic peptide 60 ppm + beta-1,3-glucanase 1/10 c) of the same compound?
A: 30.88 percentage of control

Q: What about the “FUNGAL GROWTH IN PERCENTAGE OF CONTROL” value ([5]; test solution 20: lytic peptide 200 ppm + beta-1,3-glucanase 1/10 c) of the same compound?
A: 27.89 percentage of control

Q: What about the “FUNGAL GROWTH IN PERCENTAGE OF CONTROL” value ([5]; test solution 21: lytic peptide 20 ppm + beta-1,3-glucanase 1/100 c) of the same compound?
A: 65.26 percentage of control

Q: What about the “FUNGAL GROWTH IN PERCENTAGE OF CONTROL” value ([5]; test solution 22: lytic peptide 60 ppm + beta-1,3-glucanase 1/100 c) of the same compound?
A: 63.51 percentage of control

Q: And the “FUNGAL GROWTH IN PERCENTAGE OF CONTROL” value ([5]; test solution 23: lytic peptide 200 ppm + beta-1,3-glucanase 1/100 c)?
A: 53.68 percentage of control

Q: And the “FUNGAL GROWTH IN PERCENTAGE OF CONTROL” value ([5]; test solution 24: lytic peptide 20 ppm + chitinase 1/10 c + beta-1,3-glucanase 1/10 c)?
A: 9.47 percentage of control

Q: And the “FUNGAL GROWTH IN PERCENTAGE OF CONTROL” value ([5]; test solution 25: lytic peptide 60 ppm + chitinase 1/10 c + beta-1,3-glucanase 1/10 c)?
A: 8.42 percentage of control

Q: What about the “FUNGAL GROWTH IN PERCENTAGE OF CONTROL” value ([5]; test solution 26: lytic peptide 200 ppm + chitinase 1/10 c + beta-1,3-glucanase 1/10 c) of the same compound?
A: 3.86 percentage of control

Q: And the “FUNGAL GROWTH IN PERCENTAGE OF CONTROL” value ([5]; test solution 27: lytic peptide 20 ppm + chitinase 1/100 c + beta-1,3-glucanase 1/100 c)?
A: 40.7 percentage of control

Q: What about the “FUNGAL GROWTH IN PERCENTAGE OF CONTROL” value ([5]; test solution 28: lytic peptide 60 ppm + chitinase 1/100 c + beta-1,3-glucanase 1/100 c) of the same compound?
A: 36.49 percentage of control

Q: What about the “FUNGAL GROWTH IN PERCENTAGE OF CONTROL” value ([5]; test solution 29: lytic peptide 200 ppm + chitinase 1/100 c + beta-1,3-glucanase 1/100 c) of the same compound?
A: 31.23 percentage of control
